The values below come from patent publication US4595695A, “1'-ethoxycarbonyloxyethyl ester of valproic acid, its preparation and pharmaceutical compositions containing it” (Teva Pharmaceutical Industries Ltd., priority 1983, dated 1986).

Where two headings read alike, the source gives them in different places.

One data set has as its system rats. The data set can be described thus: toxicity after oral administration to rats. In kind it is in vivo, rat. The conditions noted are these: 20 and 100 mg/kg.
The nature of data set [1]: stability of the ester in plasma in vitro. In kind it is in vitro ADME. As to the method: (§1) The ester was quite stable at -20° C. or after HCl was added to the plasma mixture. […] All these half-life time calculations were done by assuming a first order linear kinetics of hydrolysis of the ester to valproic acid.
The nature of data set [2]: VPA plasma levels after oral administration of the ester to five dogs. In kind it is in vivo, dog. Set-up: key: --: Undetectable concentration of VPA. The protocol: Concentration of VPA after oral administration of the ester of this invention to five dogs are presented in the following Table I. Each plasma sample was assayed three times and the results presented in Table I are mean ±S.D. of these analyses.

The nature of data set [3]: expected VPA plasma concentration after single oral administration of the ester to man. In kind it is in vivo. From the text:
Based on the prolonged absorption of VPA after administration of the ester, this new prodrug might be administered to epileptic patients twice or even once a day.

Data set [4] in a line: pharmacokinetic parameters of VPA in dogs after oral administration of the ester or DEPAKINE;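 note: comparator arm received VPA orally as the free acid rather than as the ester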
In kind it is in vivo, dog. The conditions noted are these: for ka, absorption rate constant / CL/F / AUC / Vd/F / k el / half-life / Tmax: VPA, 400 mg; for CL/F / AUC / Vd/F / k el / half-life / Tmax: dog, in vivo, po; for AUC: read-out: AUC, area under the plasma conc. vs. time curve (row head is drawing 3) (converted); for Vd/F: read-out: V; for k el: read-out: ke, elimination rate constant (converted); for half-life: read-out: t1/2 elimin. (converted); for Tmax: read-out: t max obs, observed time to reach peak plasma concentration (converted).

Data set [5] can be described thus: stability of the ester in 0.01 N HCl. In kind it is physicochemical. The conditions noted are these: room temperature, first order kinetics, read-out: stability half-life time in 0.01 N HCl (converted). As to the method:
as §1

The subject of another data set is animals. The conditions noted are these: in vivo; cited from earlier work.
The conditions of data set [6]: combination therapy with other anti-epileptic drugs; cited from earlier work.
For data set [7] the following is noted: physiological pH; cited from earlier work.
The conditions of data set [8]: oral; cited from earlier work.

`CCCC(CCC)C(=O)OC(C)OC(=O)OCC` (stereo not drawn) [1'-ethoxycarbonyloxyethyl ester, 1'-ethoxycarbonyloxyethyl ester of valproic acid]: the toxicity result in the data set on rats is “did not show any toxicity”. Also, the “stability at -20° C. or after HCl was added to the plasma mixture” value in [1] (-20° C. or HCl added to plasma mixture) is listed as “quite stable”. For the same molecule, the “transformation to valproic acid in plasma” value in data set [1] (plasma in vitro, room temperature) is given as “transformed to valproic acid”. For the same molecule, the half-life is 2.23 h in [1] (plasma in vitro, room temperature, first order kinetics); 2.1 h in data set [4] (dog 1, oral); 1.78 h in [4] (dog 2, oral); 0.95 h in [4] (dog 3, oral); 1.78 h in data set [4] (dog 4, oral); 32.4 h in data set [5]. In addition, the VPA plasma levels result in data set [2] (dog 1, 15 min) is “--”; in [2] (dog 1, 660 min) it was “--”; in data set [2] (dog 1, 720 min), “--”; in data set [2] (dog 1, 780 min), “--”; in data set [2] (dog 1, 840 min), “--”; in data set [2] (dog 1, 900 min), “--”. Besides, the VPA plasma levels entry is recorded as “--” in data set [2] (dog 2, 660 min); “--” in [2] (dog 2, 840 min); “--” in data set [2] (dog 2, 900 min); “--” in [2] (dog 3, 720 min); “--” in data set [2] (dog 3, 780 min); “--” in data set [2] (dog 3, 840 min). Further, the VPA plasma levels result in data set [2] (dog 3, 900 min) is given as “--”; in data set [2] (dog 4, 45 min), “--”; in data set [2] (dog 4, 60 min), “--”; in data set [2] (dog 4, 75 min), “--”; in data set [2] (dog 4, 210 min) it was “--”; in data set [2] (dog 4, 660 min) it was “--”. Besides, the VPA plasma levels result is given as “--” in data set [2] (dog 4, 720 min); “--” in data set [2] (dog 4, 780 min); “--” in [2] (dog 4, 840 min); “--” in [2] (dog 4, 900 min); “--” in data set [2] (dog 5, 30 min); “--” in data set [2] (dog 5, 660 min). In addition, the VPA plasma levels entry is on record as “--” in data set [2] (dog 5, 780 min); “--” in data set [2] (dog 5, 840 min); “--” in [2] (dog 5, 900 min). The “expected VPA concentration profile in man” value in [3] is listed as “prolonged pseudo steady state concentration”. The “ka, absorption rate constant” value in data set [4] (dog 1, oral) was determined as 0.015 min⁻¹; in data set [4] (dog 2, oral), 0.02 min⁻¹; in data set [4] (dog 3, oral), 0.02 min⁻¹; in data set [4] (dog 4, oral) it was 0.01 min⁻¹; in [4] (dog 5, oral), 0.04 min⁻¹. The CL/F came to 66.7 mL/min in data set [4] (dog 1); 34.8 mL/min in data set [4] (dog 2); 61.5 mL/min in data set [4] (dog 3); 56.5 mL/min in data set [4] (dog 4); 42.7 mL/min in data set [4] (dog 5). The AUC was 76800 ng·h/mL in [4] (dog 1, oral); 167000 ng·h/mL in data set [4] (dog 2, oral); 67700 ng·h/mL in [4] (dog 3, oral); 81200 ng·h/mL in data set [4] (dog 4, oral); 142000 ng·h/mL in data set [4] (dog 5, oral). The Vd/F in data set [4] (dog 1, oral) worked out at 12.1 L; in data set [4] (dog 2, oral) it was 5.35 L; in data set [4] (dog 3, oral), 5.08 L; in data set [4] (dog 4, oral) it was 8.69 L; in data set [4] (dog 5, oral), 7.24 L. Besides, the k el in data set [4] (dog 1, oral) is 9.17e-05 s⁻¹; in data set [4] (dog 2, oral), 0.000108 s⁻¹; in data set [4] (dog 3, oral), 0.00202 s⁻¹; in data set [4] (dog 4, oral) it was 0.000108 s⁻¹. Besides, the Tmax was 2 h in [4] (dog 1, oral); 1.4 h in [4] (dog 2, oral); 1.17 h in data set [4] (dog 3, oral); 2.5 h in data set [4] (dog 4, oral); 1.2 h in data set [4] (dog 5, oral). In addition, the “VPA plasma levels between 30 to 240 minutes” value in [4] (dogs, after ester administration) is “More or less constant plasma levels”. The “difference between the maximal and minimal steady state levels” value in [4] (dogs, between 30 to 240 minutes) is “less than a two-fold difference”. Moreover, the “distribution and elimination parameters of VPA compared between the two drug products” value in data set [4] (dogs, exception: V in dog number 1) is “not significantly different”. The “absorption rate of VPA compared with free acid” value in data set [4] (dogs, oral, ester versus free acid) was “two to five times slower”.
As to `CCCC(CCC)COC(=O)C(CCC)CCC` [2-propylpentanol-di-n-propyl acetate], the toxicity to animals entry in the data set on animals is “very toxic to animals”.
In the case of `CCCC(CCC)C(=O)O` [VPA, di-n-propylacetic acid], the “half life time in combination therapy” value in data set [6] was “even shorter than in a single therapy”. Moreover, the “ionization of carboxylic group” value in data set [7] is “significantly ionized”.
For `CCCC(CCC)C(N)=O` [VPD, Valpromide-dipropylacetamide], in [8], the “absorption compared with VPA” value is “slower absorption than VPA” and the bioavailability entry is listed as “low bioavailability”.

By CL/F is commonly meant the apparent clearance, not corrected for the fraction that reaches the circulation. As usually defined, the AUC is the area under the concentration-time curve, a measure of exposure.
